According to patent publication US20210008176A1, “COMPOSITIONS COMPRISING SULFORAPHANE OR A SULFORAPHANE PRECURSOR AND MAGNESIUM” (NUTRAMAX LABORATORIES, INC., priority 2012, published 2021):

Columns and labels:
[1] = test system: broccoli sprout-derived myrosinase; assay: Consumption of glucoraphanin by myrosinase as a function of ascorbic acid concentration; format: biochemical; details: for glucoraphanin (GR) content: 38° C.; for Slope (rate of glucoraphanin consumption): linear regression 0-60 min
Protocol: Consumption of Glucoraphanin as a Function of the Ascorbic Acid Concentration.
About 250 mg of broccoli seed extract containing about 12% (w/w) glucoraphanin were subjected to hydrolysis by a fixed concentration of broccoli sprout-derived myrosinase in the presence of variable concentration of ascorbic acid, ranging from 0 to 600 μmoles/Liter. The reaction mixtures were thermostated at 38° C.; aliquots were withdrawn every 15 minutes for 60 minutes, and concentration of glucoraphanin determined chromatographically. The rate of glucoraphanin consumption was interpreted as the rate its conversion to sulforaphane. Graphical representation of glucoraphanin content reduction as a function of increasing ascorbic acid concentration results in a series of linear plots; the slopes of the linear regression lines reflect the rate of glucoraphanin consumption, in μmoles/minute. It is apparent that in the presence of 600 μmoles/Liter concentration of ascorbic acid, the reaction rate increased 13-fold relative to that which proceeded in the absence of modulatory effects of ascorbic acid.

[2] = test system: myrosinase; assay: Equimolar conversion of glucoraphanin to sulforaphane by myrosinase with and without ascorbic acid; format: biochemical, broccoli; details: control sample, without ascorbic acid
Protocol: A two-part experiment was conducted to further elucidate the role of ascorbic acid in modulating myrosinase activity. […] A control sample contained no ascorbic acid, and the enzymatic conversion proceeded unassisted by a co-factor. PART 1. […] PART 2. While keeping the amount of broccoli seed extract fixed at 250 mg, the concentration of ascorbic acid was varied from 0.4 mmol/Liter to 3.8 mmol/Liter.

[3] = test system: monocyte chemoattractant protein (MCP-1); details: RAW cells, 1μg/mL LPS 30 minutes, then 24 hours treatment; 0.5 μM SFN, 2.5 mM MgSO4, or both
Protocol: The following study was conducted to determine the effect of the combination of sulforaphane and magnesium sulfate (MgSO4) on expression of monocyte chemoattractant protein (MCP-1), which is a mediator of inflammation. MCP-1 is chemokine which attracts monocytes, macrophages, and lymphocytes to sites of inflammation. A reduction in MCP-1 is beneficial for the health of endothelial cells which line the cardiovascular system.
In the study, RAW cells were activated with 1μg/mL lipopolysaccharide (LPS) for 30 minutes to stimulate the induction of MCP-1 gene expression. Following LPS treatment, the cells were treated with one of the following: (i) DMSO (vehicle control), (ii) 0.5 μM SFN, (iii) 2.5 mM MgSO4, or (iv) the combination of 0.5 μM SFN and 2.5 mM MgSO4. After treatment for 24 hours, the MCP-1 levels were assessed via quantitative RT-PCR.

`C[S+]([O-])CCCC/C(=N\OS(=O)(=O)O)S[C@@H]1O[C@H](CO)[C@@H](O)[C@H](O)[C@H]1O` (stereo partly drawn) [GR, 4-methylsulfinylbutyl glucosinolate] was tested, and the “glucoraphanin (GR) content” value ([1]; ascorbic acid 0 μM, 0 min) was 93.36 µmol, the “glucoraphanin (GR) content” value ([1]; ascorbic acid 0 μM, 15 min) was 92.24 µmol and the “glucoraphanin (GR) content” value ([1]; ascorbic acid 0 μM, 30 min) was 90.71 µmol. For the same molecule, the “glucoraphanin (GR) content” value ([1]; ascorbic acid 0 μM, 45 min) was 89.44 µmol, the “glucoraphanin (GR) content” value ([1]; ascorbic acid 0 μM, 60 min) was 87.79 µmol and the “Slope (rate of glucoraphanin consumption)” value (“Slope” below) ([1]; ascorbic acid 0 μM) was -0.09293 µmol/min. For the same molecule, the “glucoraphanin (GR) content” value ([1]; ascorbic acid 50 μM, 0 min) was 93.36 µmol, the “glucoraphanin (GR) content” value ([1]; ascorbic acid 50 μM, 15 min) was 89.20 µmol and the “glucoraphanin (GR) content” value ([1]; ascorbic acid 50 μM, 30 min) was 84.24 µmol. For the same molecule, the “glucoraphanin (GR) content” value ([1]; ascorbic acid 50 μM, 45 min) was 80.30 µmol, the “glucoraphanin (GR) content” value ([1]; ascorbic acid 50 μM, 60 min) was 76.36 µmol and the “Slope” value ([1]; ascorbic acid 50 μM) was -0.286 µmol/min. The “glucoraphanin (GR) content” value ([1]; ascorbic acid 125 μM, 0 min) was 93.36 µmol, the “glucoraphanin (GR) content” value ([1]; ascorbic acid 125 μM, 15 min) was 84.52 µmol and the “glucoraphanin (GR) content” value ([1]; ascorbic acid 125 μM, 30 min) was 75.92 µmol. The “glucoraphanin (GR) content” value ([1]; ascorbic acid 125 μM, 45 min) was 68.09 µmol, the “glucoraphanin (GR) content” value ([1]; ascorbic acid 125 μM, 60 min) was 59.41 µmol and the “Slope” value ([1]; ascorbic acid 125 μM) was -0.5622 µmol/min. The “glucoraphanin (GR) content” value ([1]; ascorbic acid 250 μM Filtered, 0 min) was 93.36 µmol, the “glucoraphanin (GR) content” value ([1]; ascorbic acid 250 μM Filtered, 15 min) was 86.31 µmol and the “glucoraphanin (GR) content” value ([1]; ascorbic acid 250 μM Filtered, 30 min) was 79.44 µmol. The “glucoraphanin (GR) content” value ([1]; ascorbic acid 250 μM Filtered, 45 min) was 71.94 µmol, the “glucoraphanin (GR) content” value ([1]; ascorbic acid 250 μM Filtered, 60 min) was 65.18 µmol and the “Slope” value ([1]; ascorbic acid 250 μM Filtered) was -0.4714 µmol/min. For the same molecule, the “glucoraphanin (GR) content” value ([1]; ascorbic acid 250 μM, 0 min) was 93.36 µmol, the “glucoraphanin (GR) content” value ([1]; ascorbic acid 250 μM, 15 min) was 80.95 µmol and the “glucoraphanin (GR) content” value ([1]; ascorbic acid 250 μM, 30 min) was 69.06 µmol. For the same molecule, the “glucoraphanin (GR) content” value ([1]; ascorbic acid 250 μM, 45 min) was 57.63 µmol, the “glucoraphanin (GR) content” value ([1]; ascorbic acid 250 μM, 60 min) was 45.76 µmol and the “Slope” value ([1]; ascorbic acid 250 μM) was -0.7901 µmol/min. For the same molecule, the “glucoraphanin (GR) content” value ([1]; ascorbic acid 400 μM, 0 min) was 93.36 µmol, the “glucoraphanin (GR) content” value ([1]; ascorbic acid 400 μM, 15 min) was 78.32 µmol and the “glucoraphanin (GR) content” value ([1]; ascorbic acid 400 μM, 30 min) was 62.78 µmol. The “glucoraphanin (GR) content” value ([1]; ascorbic acid 400 μM, 45 min) was 47.67 µmol, the “glucoraphanin (GR) content” value ([1]; ascorbic acid 400 μM, 60 min) was 33.15 µmol and the “Slope” value ([1]; ascorbic acid 400 μM) was -1.007 µmol/min. The “glucoraphanin (GR) content” value ([1]; ascorbic acid 600 μM, 0 min) was 93.36 µmol, the “glucoraphanin (GR) content” value ([1]; ascorbic acid 600 μM, 15 min) was 75.02 µmol and the “glucoraphanin (GR) content” value ([1]; ascorbic acid 600 μM, 30 min) was 55.66 µmol. The “glucoraphanin (GR) content” value ([1]; ascorbic acid 600 μM, 45 min) was 37.50 µmol, the “glucoraphanin (GR) content” value ([1]; ascorbic acid 600 μM, 60 min) was 22.09 µmol and the “Slope” value ([1]; ascorbic acid 600 μM) was -1.2 µmol/min. For the same molecule, the “stoichiometry of glucoraphanin conversion to sulforaphane” value [2] was “equimolar conversion”.

With `O=S(=O)([O-])[O-].[Mg+2]` [magnesium sulfate] the “reduction in MCP-1 levels” value [3] was “approximately 16%”.

`C[S+]([O-])CCCCN=C=S` (stereo not drawn) [sulforaphane, 1-isothiocyanato-4-methylsulfinylbutane] was tested, and the “reduction in MCP-1 levels” value [3] was “approximately 29%”.
